Reference: patent US12018258B2, “Mobile-CRISPRi plasmids and related methods” (CZ Biohub SF, LLC, priority 2019, dated 2024)

Legend:
[1] = system: pathogenic Gammaproteobacteria associated with antibiotic resistance
Protocol: MIC assays were performed using the broth microdilution method as previously described in Wiegand et al. Agar and broth dilution methods to determine the minimal inhibitory concentration (MIC) of antimicrobial substances. […] 3, 163 (2008) (28), except that 0.1% arabinose (for P. aeruginosa) or 100 μM IPTG (for E. aerogenes) was added to induce dcas9 expression, and K. pneumoniae cultures were shaken to reduce clumping. Three biological replicates were grown for MIC assays. […] P-values for comparing MICs between control sgRNA and folA sgRNA strains were obtained using an unpaired two-tailed t-test with Welch's correction to account for unequal variances between samples and calculated using GraphPad Prism 7.0e.

[2] = system: Klebsiella pneumoniae; conditions: MIC assay, n=3
Protocol: (§1) MIC assays were performed using the broth microdilution method as previously described in Wiegand et al. Agar and broth dilution methods to determine the minimal inhibitory concentration (MIC) of antimicrobial substances. Nat. Protoc. 3, 163 (2008) (28), except that 0.1% arabinose (for P. aeruginosa) or 100 μM IPTG (for E. aerogenes) was added to induce dcas9 expression, and K. pneumoniae cultures were shaken to reduce clumping. Three biological replicates were grown for MIC assays. Growth curves shown in FIG. 3 were set up in exactly the same manner as the MIC assays, except that cultures were grown with agitation in a plate reader (BioTek) for ˜16 hrs. P-values for comparing MICs between control sgRNA and folA sgRNA strains were obtained using an unpaired two-tailed t-test with Welch's correction to account for unequal variances between samples and calculated using GraphPad Prism 7.0e.

[3] = system: Enterobacter aerogenes; conditions: MIC assay, n=3
Protocol: as §1

COc1cc(Cc2cnc(N)nc2N)cc(OC)c1OC [trimethoprim]
growth of the folA knockdown strains ([1]; trimethoprim concentrations below the MIC for the wild type bacteria, data not shown): completely inhibited growth
shift of the minimal inhibitory concentration (MIC) ([1]; {}): 2-4 fold
sensitivity to trimethoprim after CRISPRi knockdown of folA [2]: increased sensitivity
sensitivity to trimethoprim after CRISPRi knockdown of folA [3]: increased sensitivity
